Measured values published in patent US20240284907A1, “NOVEL DERIVATIVES OF NON-CODED AMINO ACIDS AND THEIR USE AS HERBICIDES” (FortePhest LTD., priority 2021, published 2024).

Key:
Assay type in all cases: in vivo
Chenopodium = assay: Herbicidal effect on potted weeds, plant development score; conditions: soil application 1 mg/pot, scale 0 (dead plants) to 5 (healthy, as Control)
Description: (§1) Weed seeds were sawn in 0.3-liter pots, containing medium-heavy clay-loam soil from organic fields (55% clay, 23% silt, 20% sand, 2% organic matter, pH 7.1). The experiment was conducted in a completely randomized design. Each treatment was replicated 3 times (3 pots). Each compound was typically tested on crops (Corn, Wheat, Soy, Cotton, Oat, Chickpea) and weeds (Amaranth, Chenopodium, Lentils, Sinapis, Silybum).
(§2) The herbicides were applied at dose from 0 (control) to 5 mg/pot. The treatment was performed at the day of sawn (pre-emergence treatment). Then the pots were transferred to a mesh house 24 hours after herbicide application and were sprinkler irrigated to field capacity of the soil. Alternatively, the herbicides were applied on grown plants at stage 2-3 true leaves (post-emergence treatment).
(§3) The plants were grown in the mesh house during the entire experiment. Plant development at 6, 12, 19, 26 and 32 days after application (DAA) were evaluated on a scale of 0 to 5, in which 0 represents dead plants and 5 represents healthy plants similar or not different from Control. In the context of the invention, the herbicidal effect was expressed as a score calculated as an average of assessments of plants vigor, height, and leaf color.

Lentils = assay: as above; conditions: soil application 1 mg/pot, scale 0 (dead plants) to 5 (healthy, as Control)
Description: as §1, §2, §3

Silybum = assay: as above; conditions: soil application 1 mg/pot, scale 0 (dead plants) to 5 (healthy, as Control)
Description: as §1, §2, §3

Amaranth = assay: as above; conditions: soil application 1 mg/pot, scale 0 (dead plants) to 5 (healthy, as Control)
Description: as §1, §2, §3

Sinapis = assay: as above; conditions: soil application 1 mg/pot, scale 0 (dead plants) to 5 (healthy, as Control)
Description: as §1, §2, §3

[1] = test system: Seeds of Lettuce R. (Super-Jericho); assay: Filter paper bioassay with lettuce seeds: germination and early plant development, Minimal Effective Concentration (MEC); conditions: lettuce seeds on filter paper, 0 to 1 mmol/l, visually assessed after 6 days
Summary of the method: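 Non-sterilized Super-Jericho lettuce seeds, 10 per dish, on filter paper wetted with aqueous test solution at 0–1 mmol/l. Kept 48 h dark, then 4 days at 6/18 dark/light. MEC is the lowest concentration causing no germination or radicle/shoot malformation by visual scoring at day 6; at least two repeats.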

[2] = test system: Romaine lettuce (Lactuca sativa L.) plants; assay: Post-emergence herbicidal activity on potted Romaine lettuce plants (soil or foliar application); conditions: lettuce at 2 to 3 leaves, two weeks after treatment
Description: (§4) The tests were performed on Romaine lettuce (Lactuca sativa L.) plants at the stage 2 to 3 leaves. The plants were grown in mini-pots packed with soil, dimensions 2×2×5 cm, one plant per mini-pot. Test compounds were dissolved in 0.1% aqueous solution water solution of Silwet adjuvant to final concentrations ranging from 0 (Control) to 0.0001%. The test compounds were applied on soil (1 ml per pot) or foliar with airbrush (0.1 ml per pot). Each concentration was tested on 20 plants. Two weeks after the treatment the herbicidal effects of the respective test material were visually evaluated (aboveground part and roots. Then the aboveground part of the plants was neatly cut and weighed (wet weight) to assess the growth inhibition caused by the test compound. The growth inhibition (GI) was calculated as following: […]
Where Mt and Mc are median wet weight of treated and control plants, respectively. In the context of the invention, the herbicidal effect was assessed by concentration of the compound causing more than 85% of Growth Inhibition (GI) or irreversible damage of the plants (Table 3). Herbicidal activity of selected DHAAs is summarized in Table 4 (soil application) and Table 5 (Foliar application).

[3] = test system: Romaine lettuce (Lactuca sativa L.) plants; assay: Comparison of NAA and DNAA: growth inhibition of potted Romaine lettuce plants; conditions: two weeks after treatment
Description: as §4, with “adjuvant. The test material where applied in rate” for “adjuvant to final concentrations ranging from”, “(Control), 0.01, 0.05, and 0.5 mg/pot.” for “(Control) to 0.0001%.”, “soil” for “soil (1 ml per pot)”
Where Mt and Mc are median wet weight of treated and control plants, respectively.

[4] = test system: Seeds of Lettuce R. (Super-Jericho); assay: Filter paper bioassay with lettuce seeds: germination, Fully Effective Concentration (FEC); conditions: lowest concentration mostly preventing lettuce seed germination, assessed after 6 days
Description: Materials: Seeds of Lettuce R. (Super-Jericho, non-sterilized) were obtained from Ben Shahar Moshe Ltd., 99% purity. The test compounds listed in the Table 2 below were synthetized de novo or purchased from different vendors.
Filter Paper Bioassays with Lettuce seeds: The protocol is following Bertin et al. 2009 and Movellan et al. 2014 with specified modifications as described below.
Seeds were placed on Whatman no. 1 filter paper (Whatman, Middlesex, U.K.) in Petri dishes (10 seeds per plate) with 2.0 ml of aqueous solution of a test material in concentration ranged from 0 (control) to 1 mmol/l were placed in a tray tilted at 45°. The trays were kept in dark for 48 hours and then transferred to the growth chamber with 6/18 dark/light cycle for 4 days. Each experiment was performed at least with two repeats.
The development of plants' radicle and shoots were visually assessed 6 days after the beginning of the test to determine Fully Effective Concentration (FEC) of a test material. In the context of the invention, FED is defined as the lowest concentration level of a test material that mostly preventing seeds germination.

[5] = foliar application, 0.05 mg/pot
[6] = foliar application, 0.50 mg/pot

O=C(O)C(F)(F)c1csc(C(F)(F)F)n1 [compound 5679, 2,2-difluoro-2-[2-(trifluoromethyl)-1,3-thiazol-4-yl]acetic acid]
Average Herbicidal Effect, Chenopodium (Chenopodium; post-emergence): 1.0 | Average Herbicidal Effect, Chenopodium (Chenopodium; pre-emergence): 1.5 | Average Herbicidal Effect, Lentils (Lentils; post-emergence): 0.5 | Average Herbicidal Effect, Lentils (Lentils; pre-emergence): 0.0 | Average Herbicidal Effect, Silybum (Silybum; post-emergence): 2.0 | Average Herbicidal Effect, Silybum (Silybum; pre-emergence): 2.0 | Average Herbicidal Effect, Amaranth (Amaranth; post-emergence): 1.0 | Average Herbicidal Effect, Amaranth (Amaranth; pre-emergence): 4.5 | Average Herbicidal Effect, Sinapis (Sinapis; post-emergence): 1.0 | Average Herbicidal Effect, Sinapis (Sinapis; pre-emergence): 2.0 | Score (activity score of Minimal Effective Concentration, MEC) [1]: very strong | Score (test material causing more than 85% of Growth Inhibition or irreversible plant damage) ([2]; foliar application): strong (0.01 to 0.05) | Score (test material causing more than 85% of Growth Inhibition or irreversible plant damage) ([2]; soil application): strong (0.01 to 0.05)

CCOC(=O)C(F)(F)c1cc(Cl)sc1Cl [compound 5643, ethyl(2,5-dichlorothiophen-3-yl)(difluoro)acetate]
Average Herbicidal Effect, Chenopodium (Chenopodium; post-emergence): 5.0 | Average Herbicidal Effect, Chenopodium (Chenopodium; pre-emergence): 4.0 | Average Herbicidal Effect, Lentils (Lentils; post-emergence): 4.0 | Average Herbicidal Effect, Lentils (Lentils; pre-emergence): 5.0 | Average Herbicidal Effect, Silybum (Silybum; post-emergence): 3.0 | Average Herbicidal Effect, Silybum (Silybum; pre-emergence): 0.0 | Average Herbicidal Effect, Amaranth (Amaranth; post-emergence): 4.0 | Average Herbicidal Effect, Amaranth (Amaranth; pre-emergence): 0.5 | Average Herbicidal Effect, Sinapis (Sinapis; post-emergence): 5.0 | Average Herbicidal Effect, Sinapis (Sinapis; pre-emergence): 5.0 | Score (activity score of Minimal Effective Concentration, MEC) [1]: Moderate (0.1 mM)

NC(Cc1ccnc(Br)c1)C(=O)O (stereo not drawn) [compound 632]
Herbicidal effect, growth application (%) [3, 5]: 0% | Herbicidal effect, growth application (%) [3, 6]: 8% | Herbicidal effect, growth application (%) ([3]; soil application, 0.01 mg/pot): 0% | Herbicidal effect, growth application (%) ([3]; soil application, 0.05 mg/pot): 13% | Herbicidal effect, growth application (%) ([3]; soil application, 0.50 mg/pot): 21%

2-(2-chlorothiophen-3-yl)-2,2-difluoroacetic acid [compound 5623]
Score (activity score of Minimal Effective Concentration, MEC) [1]: Strong (0.01 mM) | Score (test material causing more than 85% of Growth Inhibition or irreversible plant damage) ([2]; foliar application): strong (0.01 to 0.05) | Score (test material causing more than 85% of Growth Inhibition or irreversible plant damage) ([2]; soil application): strong (0.01 to 0.05) | Herbicidal effect, growth application (%) [3, 5]: 91% | Herbicidal effect, growth application (%) [3, 6]: 97% | Herbicidal effect, growth application (%) ([3]; soil application, 0.01 mg/pot): 34% | Herbicidal effect, growth application (%) ([3]; soil application, 0.05 mg/pot): 79% | Herbicidal effect, growth application (%) ([3]; soil application, 0.50 mg/pot): 98% | FEC (Fully Effective Concentration) [4]: 1.000 mM

CCOC(=O)Cc1cc(Cl)sc1Cl [compound 5668, ethyl (2,5-dichlorothiophen-3-yl)acetate]
Average Herbicidal Effect, Chenopodium (Chenopodium; pre-emergence): 2.0 | Average Herbicidal Effect, Lentils (Lentils; pre-emergence): 4.0 | Average Herbicidal Effect, Silybum (Silybum; pre-emergence): 5.0 | Average Herbicidal Effect, Amaranth (Amaranth; pre-emergence): 3.0 | Average Herbicidal Effect, Sinapis (Sinapis; pre-emergence): 5.0 | Score (test material causing more than 85% of Growth Inhibition or irreversible plant damage) ([2]; soil application): strong (0.01 to 0.05)

NC(Cc1nc(Cl)sc1Cl)C(=O)O (stereo not drawn) [compound 527]
Herbicidal effect, growth application (%) [3, 5]: 0% | Herbicidal effect, growth application (%) [3, 6]: 44% | Herbicidal effect, growth application (%) ([3]; soil application, 0.01 mg/pot): 0% | Herbicidal effect, growth application (%) ([3]; soil application, 0.05 mg/pot): 11% | Herbicidal effect, growth application (%) ([3]; soil application, 0.50 mg/pot): 90%

CCOC(=O)Cc1cccc(Br)n1 [compound 6635, ethyl 2-(6-bromopyridin-2-yl)acetate]
Average Herbicidal Effect, Chenopodium (Chenopodium; post-emergence): 3.0 | Average Herbicidal Effect, Chenopodium (Chenopodium; pre-emergence): 0.5 | Average Herbicidal Effect, Lentils (Lentils; post-emergence): 0.0 | Average Herbicidal Effect, Lentils (Lentils; pre-emergence): 0.0 | Average Herbicidal Effect, Silybum (Silybum; post-emergence): 2.5 | Average Herbicidal Effect, Silybum (Silybum; pre-emergence): 3.0 | Average Herbicidal Effect, Amaranth (Amaranth; post-emergence): 4.0 | Average Herbicidal Effect, Amaranth (Amaranth; pre-emergence): 4.0 | Average Herbicidal Effect, Sinapis (Sinapis; post-emergence): 2.0 | Average Herbicidal Effect, Sinapis (Sinapis; pre-emergence): 3.0 | Score (activity score of Minimal Effective Concentration, MEC) [1]: Moderate (0.1 mM) | Score (test material causing more than 85% of Growth Inhibition or irreversible plant damage) ([2]; soil application): moderate (0.5)

NC(Cc1cc(Cl)sc1Cl)C(=O)O (stereo not drawn) [compound 517]
Herbicidal effect, growth application (%) [3, 5]: 0% | Herbicidal effect, growth application (%) [3, 6]: 29% | Herbicidal effect, growth application (%) ([3]; soil application, 0.01 mg/pot): 0% | Herbicidal effect, growth application (%) ([3]; soil application, 0.05 mg/pot): 25% | Herbicidal effect, growth application (%) ([3]; soil application, 0.50 mg/pot): 75%

OCC(F)(F)c1cccc(Br)n1 [compound 6643, 2-(6-bromopyridin-2-yl)-2,2-difluoroethan-1-ol]
Average Herbicidal Effect, Chenopodium (Chenopodium; post-emergence): 4.0 | Average Herbicidal Effect, Chenopodium (Chenopodium; pre-emergence): 3.0 | Average Herbicidal Effect, Lentils (Lentils; post-emergence): 0.0 | Average Herbicidal Effect, Lentils (Lentils; pre-emergence): 0.0 | Average Herbicidal Effect, Silybum (Silybum; post-emergence): 2.0 | Average Herbicidal Effect, Silybum (Silybum; pre-emergence): 2.5 | Average Herbicidal Effect, Amaranth (Amaranth; post-emergence): 1.0 | Average Herbicidal Effect, Amaranth (Amaranth; pre-emergence): 0.0 | Average Herbicidal Effect, Sinapis (Sinapis; post-emergence): 4.0 | Average Herbicidal Effect, Sinapis (Sinapis; pre-emergence): 4.0 | Score (activity score of Minimal Effective Concentration, MEC) [1]: Moderate (0.1 mM) | Score (test material causing more than 85% of Growth Inhibition or irreversible plant damage) ([2]; soil application): moderate (0.5)

(4-bromophenyl)methyl(2,5-dichlorothiophen-3-yl)(difluoro)acetate [compound 5768]
Score (activity score of Minimal Effective Concentration, MEC) [1]: Strong (0.01 mM) | Score (test material causing more than 85% of Growth Inhibition or irreversible plant damage) ([2]; foliar application): strong (0.01 to 0.05) | Score (test material causing more than 85% of Growth Inhibition or irreversible plant damage) ([2]; soil application): moderate (0.5) | FEC (Fully Effective Concentration) [4]: 0.500 mM

NC(Cc1ccsc1Cl)C(=O)O (stereo not drawn) [compound 516]
Herbicidal effect, growth application (%) [3, 5]: 0% | Herbicidal effect, growth application (%) [3, 6]: 0% | Herbicidal effect, growth application (%) ([3]; soil application, 0.01 mg/pot): 0% | Herbicidal effect, growth application (%) ([3]; soil application, 0.05 mg/pot): 0% | Herbicidal effect, growth application (%) ([3]; soil application, 0.50 mg/pot): 38%
